Test results taken from ChEMBL document CHEMBL1201862, “PubChem BioAssay data set” (2004).
Structures can show the parent of a compound that is named as a salt. Calls of active or inactive are those of the source.

Key:
[1] = target: T1, E3 ubiquitin-protein ligase XIAP (Homo sapiens, UniProt P98170); test: SAR analysis of Antagonists of XIAP-Bir3 domain of IAP-family anti-apoptotic proteins. [Related pubchem assays (depositor defined):AID1018, AID1449, AID1513, AID1514, AID1638]
[2] = target: T1, E3 ubiquitin-protein ligase XIAP; test: SAR analysis of Antagonists of IAP-family anti-apoptotic proteins. [Related pubchem assays (depositor defined):AID1018, AID1449, AID1513, AID1514, AID1638]
[3] = target: T2, Tyrosine-protein phosphatase non-receptor type 7 (Homo sapiens, UniProt P35236); test: inhibition of hematopoietic tyrosine phosphatase HePTP – biochemical, set 2, SAR follow-up (AID 449736); assay type: functional
T2 sequence (P35236 whole entry): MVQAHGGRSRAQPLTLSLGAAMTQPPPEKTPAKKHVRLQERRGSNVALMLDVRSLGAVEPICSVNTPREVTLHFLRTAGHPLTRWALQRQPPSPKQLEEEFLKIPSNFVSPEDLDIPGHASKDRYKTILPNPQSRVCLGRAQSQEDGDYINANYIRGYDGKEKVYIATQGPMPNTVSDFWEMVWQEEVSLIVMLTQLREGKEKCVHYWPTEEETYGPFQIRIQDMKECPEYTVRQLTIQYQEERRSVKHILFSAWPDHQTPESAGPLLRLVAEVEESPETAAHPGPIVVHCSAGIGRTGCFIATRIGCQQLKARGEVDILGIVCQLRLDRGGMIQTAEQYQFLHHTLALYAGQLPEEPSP

[4] = target: Signal transducer and activator of transcription 3 (Homo sapiens, UniProt P40763); test: STAT3 blockade with qPCR and toxicity readouts – cell-based, STAT1 panel, cytotoxicity, late-stage follow-up, panel member STAT3 Inhibition (AID 2078)
[5] = target: Signal transducer and activator of transcription 1-alpha/beta (Homo sapiens, UniProt P42224); test: STAT3 blockade with qPCR and toxicity readouts – cell-based, STAT1 panel, cytotoxicity, late-stage follow-up, panel member STAT1 Inhibition (AID 2078)
[6] = target: Voltage-dependent T-type calcium channel subunit alpha-1H (Homo sapiens, UniProt O95180); test: human CACNA1H calcium influx blockade – cell-based, synthetic library set 2, HEK293 HH8, Fluo-4, SAR follow-up (AID 493023); assay type: functional
[7] = target: T3, Sphingosine 1-phosphate receptor 4 (Homo sapiens, UniProt O95977); test: Late-stage fluorescence dose response cell-based assay to identify agonists of the Sphingosine 1-Phosphate Receptor 4 (S1P4): purchased compounds EC50. [Related pubchem assays (depositor defined):AID1509, AID1523, AID1563, AID1686, AID1701, AID1801]; assay type: functional
T3 sequence (O95977 whole entry): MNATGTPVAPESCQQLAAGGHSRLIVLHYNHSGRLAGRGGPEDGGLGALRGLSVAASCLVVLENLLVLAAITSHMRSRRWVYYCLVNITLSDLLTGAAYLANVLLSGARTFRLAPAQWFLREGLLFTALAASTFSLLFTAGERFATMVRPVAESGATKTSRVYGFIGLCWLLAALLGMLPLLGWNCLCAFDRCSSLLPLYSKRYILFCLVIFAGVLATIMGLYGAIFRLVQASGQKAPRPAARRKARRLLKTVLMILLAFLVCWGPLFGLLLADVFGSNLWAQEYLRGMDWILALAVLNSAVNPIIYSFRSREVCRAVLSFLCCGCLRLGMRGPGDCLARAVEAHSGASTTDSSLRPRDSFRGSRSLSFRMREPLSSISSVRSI

Troponin, cardiac muscle = Troponin, cardiac muscle (Homo sapiens, UniProt P19429+P45379+P63316); test: Fluorescence-based biochemical high throughput dose response assay for activators of the calcium sensitivity of cardiac Regulated Thin Filaments (RTF). [Related pubchem assays (depositor defined):AID493008, AID493018, AID504382, AID504383]; assay type: protein-complex assay
[8] = target: Protein-arginine deiminase type-4 (Homo sapiens, UniProt Q9UM07); test: IC50 against protein arginine deiminase 4 – biochemical, fluorescence readout, dose response (AID 492970)
[9] = target: T4, Replicative DNA helicase DnaB (Mycobacterium tuberculosis, UniProt P9WMR3); test: DnaB intein splicing inhibitors, dose response, biochemical, cell-free fluorescence (AID 449749); assay type: functional
T4 sequence (P9WMR3 whole entry): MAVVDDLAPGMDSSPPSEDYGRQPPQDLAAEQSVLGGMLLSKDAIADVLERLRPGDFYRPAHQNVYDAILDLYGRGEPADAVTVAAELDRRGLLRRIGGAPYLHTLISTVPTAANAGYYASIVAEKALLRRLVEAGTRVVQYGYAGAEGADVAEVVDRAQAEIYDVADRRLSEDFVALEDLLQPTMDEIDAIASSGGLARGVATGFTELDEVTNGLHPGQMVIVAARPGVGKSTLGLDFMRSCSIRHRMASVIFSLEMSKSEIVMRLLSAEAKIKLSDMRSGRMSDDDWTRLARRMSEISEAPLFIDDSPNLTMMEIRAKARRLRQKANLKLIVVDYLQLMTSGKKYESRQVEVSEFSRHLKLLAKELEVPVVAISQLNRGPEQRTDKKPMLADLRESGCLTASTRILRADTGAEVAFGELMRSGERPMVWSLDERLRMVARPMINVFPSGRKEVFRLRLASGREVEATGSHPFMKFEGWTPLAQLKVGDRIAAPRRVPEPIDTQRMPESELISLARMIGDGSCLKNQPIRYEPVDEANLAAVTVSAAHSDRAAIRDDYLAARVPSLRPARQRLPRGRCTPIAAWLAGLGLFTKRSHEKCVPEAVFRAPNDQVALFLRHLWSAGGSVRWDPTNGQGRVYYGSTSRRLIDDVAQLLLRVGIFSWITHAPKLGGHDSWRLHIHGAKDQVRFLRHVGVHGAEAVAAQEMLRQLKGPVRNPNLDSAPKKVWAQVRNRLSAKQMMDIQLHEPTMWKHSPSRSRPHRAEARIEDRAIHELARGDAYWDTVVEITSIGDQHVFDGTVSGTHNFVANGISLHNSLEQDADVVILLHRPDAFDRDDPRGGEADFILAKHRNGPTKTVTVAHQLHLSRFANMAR

Protein RecA = target: T5, Protein RecA (Mycobacterium tuberculosis, UniProt P9WHJ3); test: Fluorescence Cell-Free Homogeneous Dose Retest to Identify Inhibitors of RecA-Intein Splicing Activity. [Related pubchem assays (depositor defined):AID2097, AID2223, AID489010, AID492950]; assay type: functional
T5 sequence (P9WHJ3 whole entry): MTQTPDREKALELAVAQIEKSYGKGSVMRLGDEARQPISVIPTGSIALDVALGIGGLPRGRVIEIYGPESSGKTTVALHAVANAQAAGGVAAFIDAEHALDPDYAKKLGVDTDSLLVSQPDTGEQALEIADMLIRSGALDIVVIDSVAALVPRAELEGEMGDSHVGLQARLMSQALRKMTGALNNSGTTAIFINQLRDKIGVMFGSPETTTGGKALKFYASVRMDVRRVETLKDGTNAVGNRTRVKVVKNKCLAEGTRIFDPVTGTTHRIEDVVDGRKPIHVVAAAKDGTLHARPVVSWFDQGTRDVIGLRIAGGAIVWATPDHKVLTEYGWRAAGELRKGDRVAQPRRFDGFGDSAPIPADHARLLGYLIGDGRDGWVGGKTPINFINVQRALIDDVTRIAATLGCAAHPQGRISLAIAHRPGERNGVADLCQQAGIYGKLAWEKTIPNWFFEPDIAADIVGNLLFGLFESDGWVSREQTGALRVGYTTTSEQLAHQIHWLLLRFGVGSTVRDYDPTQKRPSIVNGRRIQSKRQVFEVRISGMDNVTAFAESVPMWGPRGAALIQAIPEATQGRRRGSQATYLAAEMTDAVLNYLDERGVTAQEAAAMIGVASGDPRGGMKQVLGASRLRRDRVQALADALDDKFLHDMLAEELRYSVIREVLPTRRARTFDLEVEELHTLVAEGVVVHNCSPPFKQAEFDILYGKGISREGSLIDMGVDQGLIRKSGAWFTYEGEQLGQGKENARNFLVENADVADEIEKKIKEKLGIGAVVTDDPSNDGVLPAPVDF

[10] = reduction of Shn3 3'UTR-driven luciferase in osteoblasts – cell-based, Clone20 osteoblasts, firefly luciferase, cherry-picked, dose response (AID 624132); assay type: functional;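 also: firefly luciferase luminescence from reporter carrying the Shn3 3'UTR in osteoblasts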
[11] = loss of viability in HepG2 cells – cell-based, CellTiter-Glo, cherry-picked, cytotoxicity control for Shn3 inhibitor project, dose response (AID 624134); assay type: functional
[12] = non-specific 3'UTR reporter inhibition in Clone20-Shn3RL – cell-based, Renilla luciferase, cherry-picked, counter-screen for Shn3 inhibitor project, dose response (AID 624133); assay type: functional
Caspase-6 = target: T6, Caspase-6 (Homo sapiens, UniProt P55212); test: inhibition of CASP6 peptide cleavage – biochemical, VEID-R110 fluorescence, cherry-pick, dose response (AID 720632)
T6 sequence (P55212 whole entry): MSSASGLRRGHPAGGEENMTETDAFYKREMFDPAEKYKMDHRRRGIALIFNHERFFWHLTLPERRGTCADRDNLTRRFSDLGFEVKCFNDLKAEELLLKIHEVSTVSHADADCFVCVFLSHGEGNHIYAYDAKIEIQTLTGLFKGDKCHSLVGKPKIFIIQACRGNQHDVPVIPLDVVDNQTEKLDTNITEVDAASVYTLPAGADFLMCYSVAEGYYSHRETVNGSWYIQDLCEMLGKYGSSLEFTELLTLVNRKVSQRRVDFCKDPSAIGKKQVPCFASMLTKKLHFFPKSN

[13] = rise of 2N DNA cells, HeLa – IC50, dose response (AID 1117349); assay type: functional, cell-based
[14] = rise of 4N DNA cells, HeLa – IC50, dose response (AID 1117351); assay type: functional, cell-based

Which IC50 [1] does the source give for `CN[C@@H](C)C(=O)NC1CCCN(CC(=O)NC2CCc3ccccc3C2)C1=O` (some centres not stated) here?
The IC50 was > 100 µM (inactive).

And the IC50 [2]?
The IC50 was > 100 µM (inactive).

With `Cc1ccc(-n2c(N)c(C(=O)N3CCN(c4ccccc4F)CC3)sc2=S)cc1` as the compound, how does the IC50 [3] read?
The IC50 was > 100 µM (inactive).

Which IC50 [4] does the source give for `c1ccc(CC2CCN(c3ncnc4sc5c(c34)CCC5)CC2)cc1` here?
Its IC50 is 20 µM (inactive).

What about the IC50 [5] of the same compound?
The IC50 was > 55.7 µM (inactive).

For `CC(C)(C)CCN1CCC[C@H](NC(=O)c2ccc(Cl)cc2Cl)C1`, which EC50 [6] is on record?
The EC50 was 10 µM (active).

For `Cc1ccc(Oc2ncc(Cl)cc2Cl)c([N+](=O)[O-])n1`, which EC50 [7] is on record?
Its EC50 is > 50 µM (inactive).

With `COc1ccc(/C=N/NC(=O)c2cccnc2)cc1CN1CCOCC1` as the compound, how does the EC50 (Troponin, cardiac muscle) read?
The EC50 was > 71.5 µM (inactive).

For `COc1ccc(Cc2nccc3cc(OC)c(OC)cc23)cc1OC` [PAPAVERINE HYDROCHLORIDE], which IC50 [8] is on record?
Its IC50 is 39 µM (inactive).

And the AC50 [9]?
Its AC50 is 5.66 µM (active).

And the EC50 (Protein RecA)?
The EC50 was 3.01 µM (active).

What about the AC50 [10] of the same compound?
Its AC50 is 2.48 µM (active).

What about the AC50 [11] of the same compound?
The AC50 was 8.06 µM (active).

And the AC50 [12]?
The AC50 was 20.8 µM (active).

What about the AC50 (Caspase-6) of the same compound?
The AC50 was 22 µM (active).

What about the IC50 [13] of the same compound?
Its IC50 is > 10 µM (inactive).

What about the IC50 [14] of the same compound?
The IC50 was > 10 µM (inactive).
